Experimental data: paper PMC9879403, “Oncolytic strategy using new bifunctional HDACs/BRD4 inhibitors against virus-associated lymphomas” (PLOS Pathogens, 2023)
Read-outs that look alike come from different tables or passages of the source.

Assays:
BCBL-1 = assay: WST-1 cytotoxicity assay, BCBL-1 (KSHV+ PEL); format: cell-based; details: BCBL1, 72 h
From the text: (§1) Fig 2 Identification of newly synthesized dual inhibitors with anti-PEL activities. (A) The binding mode of (+)-JQ1 with BRD4^BD1 (PDB: 3MXF). BRD4^BD1 is shown as hot pink cartoon with gray surface. Asn140 in BRD4^BD1 is shown as sticks and colored in following pattern: atom C hot pink, atom N dark blue, and atom O yellow. (+)-JQ1 is shown as sticks and colored in following patten: atom C hot pink, atom N dark blue, atom O yellow, atom S golden, and atom Cl green. The solvent exposed region (SEG) of (+)-JQ1 are indicated with white arrow. (B) The binding modes of SAHA and entinostat with HDAC2 (PDB: 3MAX). HDAC2 is shown as blue cartoon with gray surface. Asp181 and His183 in HDAC2 are shown as sticks and colored in following pattern: atom C blue, atom N dark blue, and atom O yellow. The catalytic zinc ion in the active site of HDAC2 is shown as black sphere. SAHA is shown as sticks and colored in following pattern: atom C green, atom N dark blue, and atom O yellow. Entinostat is shown as sticks and colored in following pattern: atom C hot pink, atom N dark blue, and atom O yellow. The SEG of SAHA or entinostat is indicated with white arrow. Hydrogen bonds (H-bonds) are presented by red dash lines. (C) The HDACs/BRD4 dual inhibitors 002-011 were designed by fusing the key pharmacophores of (+)-JQ1 (pink) and HDAC inhibitors (blue), SAHA or entinostat, via various chemical linkers (green). (D) Anti-PEL activities of the new compounds. Five KSHV positive and two KSHV negative lymphoma cell lines were treated with indicated concentrations of these compounds for 72 h. Then the cytotoxicity was determined using the WST-1 assay. (+)-JQ1, SAHA and entinostat were used for the comparisons as single inhibitors. The CC50 for each compound was calculated using GraphPad Prism 5.0 software. Error bars represent S.D. for 3 independent experiments.
(§2) Fig 4 Identification of anti-PEL activities for compound 009 stereoisomers. (A) The chemical structures of anti-HDACs/BRD4 bifunctional molecules 009P1 and 009P2, as well as anti-HDACs or anti-BRD4 mono-functional molecules 009N1, 009N2, 009N3, and 009N4. (B-C) Four KSHV+ PEL cell lines were treated with indicated concentrations of 009P1, 009P2 or 009N1-N4 for 72 h, then the cytotoxicity was determined using the WST-1 assay. (D-I) BCBL-1 cells were treated with these compounds at the respective 2× CC50 for 24 h, then cell cycle (D-F) and apoptosis (G-I) were measured by flow cytometry analysis. Error bars represent S.D. for 3 independent experiments, ** = p<0.01 (vs vehicle control).
(§3) The cell viability following treatment with compounds was assessed by the WST-1 assay (Roche, Indianapolis, Indiana, USA) according to the manufacturer’s protocol as described previously. The absorbance signal was measured using a microplate reader (Biotek Synergy 2). The 50% cytotoxic concentration (CC50) for each compound was calculated from these dose-response curves using the software GraphPad Prism v5.0. Data were normalized as the fold change compared to the DMSO control.

BC-1 = assay: WST-1 cytotoxicity assay, BC-1 (KSHV+ PEL); format: cell-based; details: Homo sapiens, BC1, 72 h
From the text: as §1, §2, §3

JSC-1 = assay: WST-1 cytotoxicity assay, JSC-1 (KSHV+ PEL); format: cell-based; details: 72 h
From the text: as §1, §2, §3

HUVEC = assay: WST-1 cytotoxicity on primary cells HUVEC; format: cell-based, human
Procedure: as §3
Supplementary file ppat.1011089.s006.tif: S5 Fig Cytotoxicity of tested compounds on HUVEC. The primary cells HUVEC were treated with indicated concentrations of compounds for 72 h, then cell viability was assessed using the WST-1 assay. The CC50 for each compound was calculated from the dose-response curves using Graphpad Prism 5.0 software. Data was normalized as the fold change compared to the DMSO control. (TIF) Click here for additional data file.

BCBL-1 cells [1] = assay: RNA-Sequencing of compound-treated vs vehicle-treated cells; format: cell-based, human; details: for Ratio, ARC / Ratio, ARRDC3 / Ratio, ATF3 / Ratio, CCDC169-SOHLH2 / Ratio, CD28 / Ratio, CD44 / Ratio, CFAP58 / Ratio, CHAC1 / Ratio, CSF1R / Ratio, DDIT3 / Ratio, DDIT4 / Ratio, FOS / Ratio, IFNG / Ratio, IRF7 / Ratio, LGALS9B / Ratio, MCM5 / Ratio, PRKCB / Ratio, RP11-707M3.3 / Ratio, SOCS3 / Ratio, SPINT1: gene expression, treated vs vehicle BCBL-1 cells
Procedure: RNA-Sequencing (RNA-Seq) of triplicate samples was performed by BGI Americas Corporation using their unique DNBSEQ sequencing technology. The completed RNA-Sequencing data was submitted to NCBI Sequence Read Archive (SRA# # PRJNA813422). Raw sequencing reads were analyzed using the RSEM software (version 1.3.0; human GRCh38 genome sequence and annotation) and gene expression was quantified as previously described. The EBSeq software was utilized to call differentially expressed genes that were statistically significant using a false discovery rate (FDR) less than 0.05. Differentially expressed genes between compounds- and vehicle-treated PEL cells were used as input for the GO enrichment analyses.

[2] = Pharmacokinetics in plasma of mice (LC-MS/MS); details: male, NOD/SCID, mouse, in vivo
Procedure: The i.p. and p.o. dose were formulated with DMSO/PEG300/Tween80/saline (5/30/10/55). Samples were obtained at 0.25, 0.5, 1, 2, 4, and 8 hours post dosing via tail snipping, transferred into plastic microcentrifuge tubes containing 4 μL of K2-EDTA (0.5 M) as anti-coagulant and placed on wet ice until centrifugation. Harvested blood samples were centrifuged shortly after collection at 4,000 g 4°C for 10 minutes. After centrifugation, the amount of compounds in the plasma was determined using HPLC-coupled tandem mass spectrometry (LC-MS/MS). Values are calculated from arithmetic mean plasma concentrations (n = 3 mice per condition). AUClast and t1/2 were determined using GraphPad Prism v5.0. The bioavailability F (%) = AUClast for p.o. / AUClast for i.p. × 100 [50].

BRD4 = BRD4 signaling by Western blot (c-Myc expression); format: cell-based
BCBL-1 cells [3] = assay: Cell death regulatory proteins by Western blot; format: cell-based; details: 50 nM, 48 h
[4] = BCBL-1 cells, 48 h, Western blot
[5] = read-out: KSHV-infected lymphomas CC50, BCBL-1
[6] = read-out: KSHV-infected lymphomas CC50, BC-1
[7] = read-out: KSHV-infected lymphomas CC50, JSC-1
[8] = ip, mice, single i.p. 50 mg/kg, plasma, read-out: AUClast
[9] = ip, mice, single i.p. 50 mg/kg, plasma, read-out: Cmax
[10] = ip, mice, single i.p. 50 mg/kg, plasma, read-out: Tmax
[11] = ip, mice, single i.p. 50 mg/kg, plasma, read-out: t1/2 (converted)

Row | SMILES | Ratio, ARC (BCBL-1 cells [1]) | Ratio, ARRDC3 (BCBL-1 cells [1]) | Ratio, ATF3 (BCBL-1 cells [1]) | Ratio, CCDC169-SOHLH2 (BCBL-1 cells [1]) | Ratio, CD28 (BCBL-1 cells [1]) | Ratio, CD44 (BCBL-1 cells [1]) | Ratio, CFAP58 (BCBL-1 cells [1]) | Ratio, CHAC1 (BCBL-1 cells [1]) | Ratio, CSF1R (BCBL-1 cells [1]) | Ratio, DDIT3 (BCBL-1 cells [1]) | Ratio, DDIT4 (BCBL-1 cells [1]) | Ratio, FOS (BCBL-1 cells [1]) | Ratio, IFNG (BCBL-1 cells [1]) | Ratio, IRF7 (BCBL-1 cells [1]) | Ratio, LGALS9B (BCBL-1 cells [1]) | Ratio, MCM5 (BCBL-1 cells [1]) | Ratio, PRKCB (BCBL-1 cells [1]) | Ratio, RP11-707M3.3 (BCBL-1 cells [1]) | Ratio, SOCS3 (BCBL-1 cells [1]) | Expression of p-RB, cleaved-caspase 3 and cleaved-PARP (BCBL-1 cells [3]) | also measured
1 | Cc1sc2c(c1C)C(c1ccc(Cl)cc1)=N[C@@H](CC(=O)O[C@H](C)c1ccc(C(=O)Nc3ccccc3N)cc1)c1nnc(C)n1-2 [009P1, (R)-1-(4-((2-aminophenyl)carbamoyl)phenyl)ethyl 2-((S)-4-(4-chlorophenyl)-2,3,9-trimethyl-6H-thieno[3,2-f][1,2,4]triazolo[4,3-a][1,4]diazepin-6-yl)acetate] | 18.81 | 30.72 | 12.86 | 0.3358 | 0.4509 | 0.1954 | 0.1358 | 8.345 | 24.82 | 12.33 | 21.76 | 46.18 | 0.1678 | 23.79 | 0.03812 | 0.2002 | 0.02626 | 0.3443 | 41.42 | strongly affected | CC50 (BCBL-1; read-out: CC50, BCBL-1): 16 nM; CC50 (BC-1; read-out: CC50, BC-1): 42 nM; CC50 (JSC-1; read-out: CC50, JSC-1): 300 nM; Cytotoxicity in primary cells HUVEC (HUVEC): much less cytotoxicity; Genes differentially expressed between 009P1- and 009P2-treated PEL cells (BCBL-1 cells [1]; BCBL-1, ≥ 2 fold-change and FDR < 0.05): 473 genes; Ratio, SPINT1 (BCBL-1 cells [1]): 0.1504; bioavailability ([2]; 50 mg/kg): 24.5%; AUC(0-t) ([2]; ip, 50 mg/kg): 159000 ng·h/mL; Cmax ([2]; ip, 50 mg/kg): 74600 ng/mL; Tmax ([2]; ip, 50 mg/kg): 1 h; half-life ([2]; ip, 50 mg/kg): 1.66 h; AUC(0-t) ([2]; po, 50 mg/kg): 39000 ng·h/mL; Cmax ([2]; po, 50 mg/kg): 11500 ng/mL; Tmax ([2]; po, 50 mg/kg): 0.5 h; half-life ([2]; po, 50 mg/kg): 1.12 h; c-Myc expression (BRD4; [4]): decreased
2 | Cc1sc2c(c1C)C(c1ccc(Cl)cc1)=N[C@@H](CC(=O)OC(C)(C)C)c1nnc(C)n1-2 [(+)-JQ1, reference compound] | 21.83 | 27.58 | 28.74 | 0.1299 | 0.05544 | 0.09101 | 0.2089 | 55.65 | 62.41 | 20.73 | 28.37 | 78.64 | 0.1251 | 52.67 | 0.04587 | 0.1471 | 0.06358 | 0.2212 | 37.19 | almost unchanged | CC50 (BCBL-1; [5]): 18 nM; CC50 (BC-1; [6]): 44 nM; CC50 (JSC-1; [7]): 41 nM; Cytotoxicity in primary cells HUVEC (HUVEC; 72 h, WST-1): moderate cytotoxicity; Ratio, SPINT1 (BCBL-1 cells [1]): 0.1876; AUC(0-t) [2, 8]: 78000 ng·h/mL; Cmax [2, 9]: 28700 ng/mL; Tmax [2, 10]: 1 h; half-life [2, 11]: 2.27 h; c-Myc expression (BRD4): drastically downregulated
3 | O=C(CCCCCCC(=O)Nc1ccccc1)NO [SAHA, suberoylanilide hydroxamic acid, reference compound] | 10.26 | 7.834 | 33.64 | 0.1697 | 0.3793 | 0.293 | 0.411 | 53.96 | 3.864 | 16.62 | 5.426 | 21.04 | 0.312 | 5.624 | 0.3605 | 0.4255 | 0.3013 | 0.2461 | 9.781 | almost unchanged | CC50 (BCBL-1; [5]): 41 nM; CC50 (BC-1; [6]): 1380 nM; CC50 (JSC-1; [7]): 680 nM; Cytotoxicity in primary cells HUVEC (HUVEC; 72 h, WST-1): moderate cytotoxicity; AUC(0-t) [2, 8]: 12000 ng·h/mL; Cmax [2, 9]: 16600 ng/mL; Tmax [2, 10]: 0.25 h; half-life [2, 11]: 0.72 h; c-Myc expression (BRD4; [4]): subtle effect
